Legend:
Assay in all cases: relative viability (nuclei count vs DMSO), 5 days (fraction); higher = more cells survive
Obatoclax + Crizotinib = compound: COC1=CC(c2cc3ccccc3[nH]2)=N/C1=C\c1[nH]c(C)cc1C [Obatoclax] + C[C@@H](Oc1cc(-c2cnn(C3CCNCC3)c2)cnc1N)c1c(Cl)ccc(F)c1Cl [Crizotinib] (partner 1 µM)
Procedure, shortened: (§1)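 Lung cancer cell lines in 1536-well plates were dosed by pin tool the day after seeding, either with one drug alone or with a fixed anchor-drug dose plus five library-drug doses (not always all listed) in √10 steps. After 5 days, cells were fixed and their nuclei stained in one step (final 0.05% Triton X-100, 1% formaldehyde, 1 ug/ml Hoechst), then counted on 4× images. Relative viability is the nuclei count in treated wells divided by that in vehicle wells. Values are medians of duplicate plates.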

Bortezomib + Trametinib = compound: CC(C)C[C@H](NC(=O)[C@H](Cc1ccccc1)NC(=O)c1cnccn1)B(O)O [Bortezomib] + CC(=O)Nc1cccc(-n2c(=O)n(C3CC3)c(=O)c3c(Nc4ccc(I)cc4F)n(C)c(=O)c(C)c32)c1 [Trametinib] (partner 0.02 µM)
Procedure, shortened: as §1

Obatoclax + Tozasertib = compound: COC1=CC(c2cc3ccccc3[nH]2)=N/C1=C\c1[nH]c(C)cc1C [Obatoclax] + Cc1cc(Nc2cc(N3CCN(C)CC3)nc(Sc3ccc(NC(=O)C4CC4)cc3)n2)n[nH]1 [Tozasertib] (partner 0.1 µM)
Procedure, shortened: as §1

[1] = compound: CC1=CC(=NN1)NC2=CC(=NC(=N2)/C=C/C3=CC=CC=C3)N4CCN(CC4)C + CCNC(=O)c1noc(-c2cc(C(C)C)c(O)cc2O)c1-c1ccc(CN2CCOCC2)cc1 [Luminespib] (partner 0.01 µM)
Procedure, shortened: as §1

Cell Line	relative viability (Obatoclax + Crizotinib; first compound 0.01 µM)	relative viability (Obatoclax + Crizotinib; first compound 0.03162 µM)	relative viability (Obatoclax + Crizotinib; first compound 0.3162 µM)	relative viability (Obatoclax + Crizotinib; first compound 1 µM)	relative viability (Bortezomib + Trametinib; first compound 0.0002 µM)	relative viability (Bortezomib + Trametinib; first compound 0.000632 µM)	relative viability (Bortezomib + Trametinib; first compound 0.002 µM)	relative viability (Bortezomib + Trametinib; first compound 0.006325 µM)	relative viability (Bortezomib + Trametinib; first compound 0.02 µM)	relative viability (Obatoclax + Tozasertib; first compound 0.01 µM)	relative viability (Obatoclax + Tozasertib; first compound 0.03162 µM)	relative viability (Obatoclax + Tozasertib; first compound 0.1 µM)	relative viability (Obatoclax + Tozasertib; first compound 0.3162 µM)	relative viability (Obatoclax + Tozasertib; first compound 1 µM)	relative viability (Obatoclax + Crizotinib; first compound 0.1 µM)	relative viability ([1]; first compound 0.08 µM)	relative viability ([1]; first compound 0.253 µM)	relative viability ([1]; first compound 0.8 µM)	relative viability ([1]; first compound 2.53 µM)	relative viability ([1]; first compound 8 µM)
HCC-78	0.326	0.34	0.317	0.314	0.799	0.699	0.312	0.196	0.233	0.338	0.404	0.664	0.399	0.344	–	–	–	–	–	–
HCC-366	0.63	0.554	0.533	0.354	0.333	0.371	0.433	0.181	0.0229	0.1	0.117	0.134	0.0528	0.0652	0.468	–	–	–	–	–
HCC-827	0.86	0.847	0.876	0.772	0.515	0.555	0.417	0.218	0.141	0.389	0.418	0.44	0.412	0.411	0.957	0.577	0.673	0.587	0.441	0.236
HOP-62	0.837	0.911	0.796	1	0.37	0.401	0.378	0.173	0.0647	0.357	0.343	0.353	0.393	0.299	0.998	0.953	0.966	0.888	0.849	0.35
IA-LM	0.667	0.91	0.0663	0.0759	–	–	–	–	–	–	–	–	–	–	0.529	–	–	–	–	–
LC-2-ad	0.424	0.455	0.412	0.425	0.903	0.89	0.995	0.597	0.201	0.465	0.422	0.44	0.387	0.355	–	1.11	1.23	0.693	0.611	0.204
LCLC-97TM1	0.452	0.27	0.329	0.358	0.173	0.205	0.162	0.0973	0.063	0.268	0.255	0.232	0.215	0.21	0.339	0.806	0.796	0.67	0.341	0.0891
LCLC-103H	0.944	1.03	1.03	1.03	0.661	0.687	0.589	0.336	0.256	0.498	0.472	0.505	0.477	0.553	1.02	0.912	1.03	0.876	0.814	0.269
LK-2	0.243	0.179	0.231	0.257	0.68	0.597	0.332	0.156	0.196	0.194	0.175	0.197	0.208	0.149	0.236	0.174	0.175	0.226	0.16	0.151
